Experimental findings from patent US7303752B2, “Hookworm vaccine” (The George Washington University, priority 2001, dated 2007) are described below.

Common to all, as to type: in vivo, dog
Assay [1] has as its system A. caninum. Put plainly: Canine vaccine trial with Ac-TMP, Ac-AP, Ac-APR-1, oral challenge with 400 A. caninum L3. As to conditions: for % Decrease of adult hookworms in the small intestines relative to alum-injected dogs / % Increase of adult hookworms in the colons relative to alum-injected dogs: group; for adult A. caninum hookworms in the colons, Median / adult hookworms in the small intestines, Median: group median; for adult A. caninum hookworms in the colons, Median: alum control 4; for adult hookworms in the small intestines, Median: alum control 180; for ratio of adult hookworms in the small intestine relative to the colon: vaccinated group, alum-injected dogs 43.9. The text has this:
Study dogs and animal husbandry: Following protocol approval by The George Washington University Institutional Animal Care and Use Committee (IACUC), purpose bred, parasite naïve, male beagles 8±1 week of age were purchased, identified by ear tattoo, and maintained in the AALAC (Association for Assessment and Accreditation of Laboratory Animal Care) accredited George Washington University Animal Research Facility. The dogs were housed in a room dedicated for the study, at a room temperature of 70±4° F., with 10-15 air changes per hour comprised of 100 percent fresh air, and 12 hr light cycles alternating with 12 hr dark cycles. The airflow and timer functions were monitored daily. The dogs were fed on a diet of Teklad Certified Dog Chow #8727, supplemented with a canned soft diet in the event of anorexia. The drinking water was piped from a filter plant and delivered via automatc water system; water analysis was performed by the U.S. Army Corps of Engineers. Water from the facilities automatic system is cultured for bacteria and fungi annually. The pens were flushed daily and sanitized every two weeks. Dogs within a given study group were permitted to live together and socialize prior to the hookworm larval challenge, but were caged individually post-infection. All dogs were quarantined for approximately one week before beginning the vaccine trial. Prior to vaccination a complete blood count (CBC), serum chemistries, and a pre-vaccination serum sample were obtained.
Vaccine study design and sample size: The vaccine trial was designed to test three different antigens, each formulated with alum, as well as an alum adjuvant control. A total of 24 dogs were randomly assigned into four groups comprised of 6 dogs each. The canine sample size was selected on the ability to detect a 40-50 percent reduction in the numbers of adult hookworms in the small intestines of the vaccinated group relative to control dogs, at a statistical power of 80 percent (alpha=0.05, two-tailed). The data were derived from the mean and standard deviation of adult hookworms previously recovered from age-matched dogs infected with 400 A. caninum L3 (Hotez et al, 2002).
Recombinant Antigens: Each group of 6 dogs was vaccinated with recombinant hookworm proteins expressed as fusion proteins either in Escherichia coli or in an insect cell line with baculovirus. Ac-AP (Cappello et al, 1995; 1996) and Ac-TMP, were expressed in E. coli as pET 28 (Novagen) fusion proteins containing a polyhistidine tag (Cappello et al, 1996). Ac-APR-1 (Harrop et al, 1996) was expressed in a baculovirus pBacPAK6 vector (Clontech), modified to contain a polyhistidine-encoding sequence and additional restriction enzyme sites (Brindley et al, 2001). Recombinant Ac-AP and Ac-TMP fusion proteins were then purified by nickel affinity chromatography, followed by a second step of purification. In the case of Ac-AP (Cappello et al, 1995; 1996), the recombinant protein was purified by mono-S (Amersham-Pharmacia) ion exchange chromatography, while Ac-TMP (Zhan et al, 2002) was purified by superdex 75 (Amersham-Pharmacia) gel filtration chromatography. Ac-APR-1 (Harrop et al, 1996) was purified by substrate affinity chromatography using pepstatin agarose (Brindley et al, 2001). The antigen stock protein concentration was determined by Pierce Micro BCA assay (Pierce Chemicals) or by the absorbance of the sample at […] using an extinction coefficient that was calculated from the deduced amino acid composition of the fusion protein. The amount of alum adsorbed protein in each dose of antigen was measured by the Pierce Micro BCA assay using a bovine serum albumin standard. The relative purity of each of the antigens relative to contaminating E. coli or insect cell proteins was determined by analysis on sodium dodecyl sulfate polyacrylamide gel electrophoresis (SDS-PAGE). […]

Assay [2] relates to antibody to recombinant proteins. As to the kind of experiment: Pre-challenge antibody titer ELISA, trial with Ac-ASP-2, Ac-API, Ac-MEP-1, Ac-APR-1 in AS03. The protocol:
(§1) The vaccine trial was designed to test Ac-API, Ac-ASP-2, Ac-MEP-1, Ac-APR-1 formulated with Adjuvant System 03 (AS03) obtained from GlaxoSmithKline (GSK). The rationale for selecting AS03 as an adjuvants is discussed elsewhere (Stoute et al, 1997). The ten purpose bred beagles were randomized into five arms: immunized with the adjuvant-formulated recombinant proteins or adjuvant only (control). To make six doses of antigen formulated with AS03, […] of recombinant protein (0.3 ml of antigen at a concentration of 2 mg.ml^−1) was mixed with 1.2 ml of 20 mM Tris-HCl, 0.5 M NaCl, pH 7.9 and 1.5 ml of AS03; the contents of the tube were vortex mixed for 30 seconds then shaken at low speed for 10 minutes. Dogs were immunized with 100 g of formulated antigen in a final volume of 0.5 ml. ASO3 only control was prepared as described above, with PBS included instead of antigen. Formulation of GSK adjuvants were conducted according to the protocol provided by GSK. All injections were performed intramuscularly (IM). Test and control articles were prepared on the day of injection. All animals received 4 immunizations approximately 3 weeks apart.
Beagles were immunized with formulated Ac-ASP-2 as previously described (Loukas et al, 2004). The vaccines were administered IM three times beginning at age 62+/−4 days. Boosts were administered to the dogs at intervals of 21 days. Blood was drawn at least once every 21 days and serum was separated from cells by centrifugation. Each animal's specific antibody response was evaluated by indirect ELISA using serum taken prior to the infective challenge (Loukas et al, 2004). Recombinant Ac-ASP-2 was coated onto microtiter plates at a concentration of 5 g.ml^−1. Dog sera were titrated between 1:100 and 1:2×10^6 to determine endpoint titers. Anti-canine IgG1, IgG2 and IgE antibodies conjugated to horse-radish peroxidase (Bethyl Laboratories) were used at a dilution of 1:1,000.

In assay [3] the test system is A. caninum. As to the kind of experiment: Canine vaccine trial with Ac-ASP-2, Ac-API, Ac-MEP-1, Ac-APR-1 in AS03, footpad challenge with 500 A. caninum L3. How it is done:
as §1, with “The ten purpose bred beagles were randomized into five arms: immunized with the adjuvant-formulated recombinant proteins or adjuvant only (control).” left out
A. caninum larvae were cultured from eggs collected in the feces of infected dogs. All hookworms in the infective challenge were approximately equal age (17±7 days post hatching). The species identity of the infective larvae were validated using PCR. All dogs were infected by the footpad method with the same dose of 500 L3 of A. caninum (Zhan et al, 2001). Larval challenge occurred on one of three consecutive days (at age 120+/−9 days). Fourteen-sixteen days after the final immunization, dogs were anesthetized using a combination of ketamine and xylazine (20 mg.kg^−1 and 10 mg.kg^−1 respectively), and 500 A. caninum L3 in a final volume of […] were applied to the footpad.

Several values for one entry are separate records, joined by “and”; a condition that tells them apart may be missing. Equal entries are not always repeated.

With “Ac-APR-1: A. caninum aspartic protease (cathepsin), SEQ ID NO: 50; baculovirus expressed”, in assay [1], the “% Decrease of adult hookworms in the small intestines relative to alum-injected dogs” value came to 18%; the “% Increase of adult hookworms in the colons relative to alum-injected dogs” value turned out to be 300%; the “adult A. caninum hookworms in the colons, Median” value turned out to be 27; the “adult hookworms in the small intestines, Median” value is 138. The “ratio of adult hookworms in the small intestine relative to the colon” value in assay [1] was 7.3. In assay [2] (AS03), the “antibody response, in words” value is reported as “only a single dog developed a substantial antibody titer”. Further, in assay [2] (geometric mean of group), the “Pre-challenge antibody titer, IgG1, GEOMEAN” value is 100 and the “Pre-challenge antibody titer, IgG2, GEOMEAN” value was found to be 562. In addition, in assay [2] (individual dogs), the “Pre-challenge antibody titer, IgG1” value is 100; the “Pre-challenge antibody titer, IgG2” value is 500 (3×) and 4,500 and 100. For the same molecule, in assay [3] (5 dogs), the “worm burdens, Maximum” value is listed as 250.00 and the “worm burdens, Minimum” value was found to be 119.00. The “worm burdens, Mean” value in assay [3] (5 dogs, ASO3 control 203.8000) was 177.0000. In assay [3] (5 dogs, ASO3 control 215.0000), the “worm burdens, Median” value was 168.0000. In assay [3] (dog A3 (ASP-2 group), dog D2 (APR-1 group), versus control mean), the “worm burden reduction in a single dog” value amounted to 42%. The “worm burden, Colon, Male, Average” value in assay [3] (group average, AS03 control 5) is 4. Also, the “worm burden, Colon, Female, Average” value in assay [3] (group average, AS03 control 9) came out at 6. Besides, the “worm burden, Intestine, Female, Average” value in assay [3] (group average, AS03 control 95) is listed as 79. Also, the “worm burden, Intestine, Male, Average” value in assay [3] (group average, AS03 control 96) was found to be 83. Besides, in assay [3] (group average, AS03 control 204), the “worm burden, Total, Average” value was found to be 177. In assay [3] (individual dogs), the “worm burden, Colon, Female” value was 1 and 18 and 3 and 8 and 0; the “worm burden, Colon, Male” value was 0 (2×) and 11 and 3 and 5; the “worm burden, Intestine, Female” value was 76 and 41 and 69 and 87 and 122; the “worm burden, Intestine, Male” value is 65 and 47 and 131 and 124 and 49. In addition, the “worm burden, Total” value in assay [3] (individual dogs) is 168 and 119 and 146 and 202 and 250. The “fecal eggs (fecundity), in words” value in assay [3] (relative to the control group) is reported as “significant reduction in fecal eggs”.

B1: Ac-TMP: A. caninum putative tissue inhibitor of metalloproteinase, SEQ ID NO: 12; E. coli fusion protein (protein, listed as Ancylostoma caninum)
chain: MRVAIVFIACFAVAHACKCEKKPRPPLEKLLCQSQFVTHAKVTKKRIDGYFIYYDLEHKEVYKPKDRSIPIELFSWREKENCGMPDLEEGKEYLIGGKVTDYGDGDLVISVSRCDLLRNWTDVSGEEKKLLGTFKCENQS
modifications: E. coli fusion partner
notes: E. coli fusion protein
On to B1, for which, in assay [1], the “% Decrease of adult hookworms in the small intestines relative to alum-injected dogs” value came to 10.8%; the “% Increase of adult hookworms in the colons relative to alum-injected dogs” value was 500%; the “adult A. caninum hookworms in the colons, Median” value amounted to 32; the “adult hookworms in the small intestines, Median” value was 161. Moreover, the “ratio of adult hookworms in the small intestine relative to the colon” value in assay [1] amounted to 6.6.
